Columns and labels:
[1] = DRUGMATRIX: GABAA, Flunitrazepam, Central radioligand binding (ligand: [3H] Flunitrazepam); format: cell membranes, Rattus norvegicus, Wistar, Brain, Membrane; conditions: Not Active = under 50% inhibition at 10 µM
[2] = target: T1, Alpha-1A adrenergic receptor (Rattus norvegicus, UniProt P43140); assay: DRUGMATRIX: Alpha-1A adrenergic receptor radioligand binding (ligand: prazosin); format: cell membranes, Wistar, Submaxillary gland, Membrane; conditions: Not Active = under 50% inhibition at 10 µM
T1 sequence (P43140 whole entry): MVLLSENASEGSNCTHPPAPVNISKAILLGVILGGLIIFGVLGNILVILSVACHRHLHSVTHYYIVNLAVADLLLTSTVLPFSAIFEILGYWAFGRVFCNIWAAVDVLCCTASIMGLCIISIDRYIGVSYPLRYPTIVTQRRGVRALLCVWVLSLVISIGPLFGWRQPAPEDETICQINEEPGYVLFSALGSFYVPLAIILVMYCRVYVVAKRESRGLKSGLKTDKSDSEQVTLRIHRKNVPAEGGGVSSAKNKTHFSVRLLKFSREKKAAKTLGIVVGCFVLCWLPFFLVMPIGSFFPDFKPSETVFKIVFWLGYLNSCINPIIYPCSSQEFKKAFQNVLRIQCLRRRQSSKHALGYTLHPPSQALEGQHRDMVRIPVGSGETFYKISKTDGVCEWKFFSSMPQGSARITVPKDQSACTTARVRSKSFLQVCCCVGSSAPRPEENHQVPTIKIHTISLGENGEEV

[3] = target: D(3) dopamine receptor (Homo sapiens, UniProt P35462); assay: DRUGMATRIX: Dopamine D3 radioligand binding (ligand: [3H] Spiperone); format: cell membranes, CHO, Membrane; conditions: cho
[4] = target: T2, Receptor-type tyrosine-protein phosphatase C (Homo sapiens, UniProt P08575); set-up: species or system Escherichia coli;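 further: inhibition of CD45 enzyme activity measured using DiFMUP as substrate; in other assays of this panel Not Active means under 50% inhibition at 10 µM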
T2 sequence (P08575 whole entry): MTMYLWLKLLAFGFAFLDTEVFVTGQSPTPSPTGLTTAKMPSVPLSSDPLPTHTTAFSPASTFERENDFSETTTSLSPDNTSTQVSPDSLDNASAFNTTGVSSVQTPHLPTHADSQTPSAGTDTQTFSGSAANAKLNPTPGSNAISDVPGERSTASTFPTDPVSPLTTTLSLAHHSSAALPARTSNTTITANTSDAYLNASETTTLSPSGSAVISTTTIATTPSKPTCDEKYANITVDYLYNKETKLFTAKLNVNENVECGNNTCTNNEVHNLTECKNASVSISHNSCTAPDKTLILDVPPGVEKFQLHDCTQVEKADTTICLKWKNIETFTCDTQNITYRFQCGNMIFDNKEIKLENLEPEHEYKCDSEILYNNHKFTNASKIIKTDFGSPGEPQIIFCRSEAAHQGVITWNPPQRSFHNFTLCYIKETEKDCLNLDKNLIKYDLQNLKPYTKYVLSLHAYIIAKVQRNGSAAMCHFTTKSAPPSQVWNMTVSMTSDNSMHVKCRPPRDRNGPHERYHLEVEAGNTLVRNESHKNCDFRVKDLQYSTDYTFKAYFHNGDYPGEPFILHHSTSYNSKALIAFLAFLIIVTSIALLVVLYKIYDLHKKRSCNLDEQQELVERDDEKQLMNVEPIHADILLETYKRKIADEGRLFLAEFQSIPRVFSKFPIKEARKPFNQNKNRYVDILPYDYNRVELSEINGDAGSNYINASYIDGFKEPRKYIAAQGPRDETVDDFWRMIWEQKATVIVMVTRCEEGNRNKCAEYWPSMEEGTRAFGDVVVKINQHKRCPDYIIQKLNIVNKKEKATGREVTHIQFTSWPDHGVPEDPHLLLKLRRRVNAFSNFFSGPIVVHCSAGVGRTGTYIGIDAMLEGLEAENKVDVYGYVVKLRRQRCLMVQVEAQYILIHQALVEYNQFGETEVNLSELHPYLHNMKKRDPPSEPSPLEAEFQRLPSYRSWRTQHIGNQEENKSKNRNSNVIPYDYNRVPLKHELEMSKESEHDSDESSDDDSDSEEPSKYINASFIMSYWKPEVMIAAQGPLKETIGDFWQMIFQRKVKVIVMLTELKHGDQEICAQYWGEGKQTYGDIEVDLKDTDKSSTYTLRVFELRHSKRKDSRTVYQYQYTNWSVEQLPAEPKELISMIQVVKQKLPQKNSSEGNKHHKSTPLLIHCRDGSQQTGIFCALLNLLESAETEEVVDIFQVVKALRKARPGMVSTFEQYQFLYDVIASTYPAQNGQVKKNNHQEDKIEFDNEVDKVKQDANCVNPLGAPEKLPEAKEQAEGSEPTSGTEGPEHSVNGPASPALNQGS

[5] = target: Sodium-dependent noradrenaline transporter (Homo sapiens, UniProt P23975); assay: DRUGMATRIX: Norepinephrine Transporter radioligand binding (ligand: [125I] RTI-55); format: cell membranes, MDCK, Membrane; conditions: mdck; Not Active = under 50% inhibition at 10 µM
Sodium-dependent noradrenaline transporter, sequence (P23975 whole entry): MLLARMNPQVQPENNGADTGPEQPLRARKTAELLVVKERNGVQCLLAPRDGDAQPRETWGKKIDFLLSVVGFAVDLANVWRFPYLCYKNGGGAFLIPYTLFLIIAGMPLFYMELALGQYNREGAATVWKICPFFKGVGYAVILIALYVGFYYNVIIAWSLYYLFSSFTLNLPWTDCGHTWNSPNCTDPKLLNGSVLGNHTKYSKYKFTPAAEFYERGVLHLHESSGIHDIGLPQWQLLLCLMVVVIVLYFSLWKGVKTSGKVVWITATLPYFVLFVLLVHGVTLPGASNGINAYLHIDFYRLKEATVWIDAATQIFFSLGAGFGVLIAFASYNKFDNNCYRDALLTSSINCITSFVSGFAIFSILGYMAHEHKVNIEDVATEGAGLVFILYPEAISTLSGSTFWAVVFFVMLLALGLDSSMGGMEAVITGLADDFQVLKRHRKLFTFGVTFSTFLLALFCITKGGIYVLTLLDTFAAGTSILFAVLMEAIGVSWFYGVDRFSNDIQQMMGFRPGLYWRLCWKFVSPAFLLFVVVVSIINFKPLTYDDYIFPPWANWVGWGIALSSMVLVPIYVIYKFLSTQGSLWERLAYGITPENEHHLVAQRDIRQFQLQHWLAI

D(3) dopamine receptor, sequence (P35462 whole entry): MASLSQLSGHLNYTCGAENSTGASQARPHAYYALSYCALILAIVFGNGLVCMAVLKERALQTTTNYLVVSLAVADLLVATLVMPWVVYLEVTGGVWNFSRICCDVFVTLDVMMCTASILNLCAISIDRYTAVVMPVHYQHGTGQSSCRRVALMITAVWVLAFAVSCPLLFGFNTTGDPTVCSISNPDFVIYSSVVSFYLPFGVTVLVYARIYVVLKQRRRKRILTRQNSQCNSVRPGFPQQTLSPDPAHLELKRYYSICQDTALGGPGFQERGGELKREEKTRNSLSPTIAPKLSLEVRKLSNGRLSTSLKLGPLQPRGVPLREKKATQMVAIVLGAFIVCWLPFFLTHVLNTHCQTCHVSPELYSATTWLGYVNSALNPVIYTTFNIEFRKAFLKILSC

CC(C(=O)O)c1cccc(Oc2ccccc2)c1 (stereo not given) [FENOPROFEN]
IC50 [1]: Not Active
Ki [1]: Not Active
IC50 [2]: Not Active
IC50 [3]: Not Active
IC50 [4]: Not Active
IC50 [5]: Not Active

CC(C)(C)NC(=O)[C@H]1CC[C@H]2[C@@H]3CC[C@H]4NC(=O)C=C[C@]4(C)[C@H]3CC[C@]12C [FINASTERIDE]
IC50 [1]: Not Active
Ki [1]: Not Active
IC50 [2]: Not Active
IC50 [3]: Not Active
IC50 [4]: Not Active
IC50 [5]: Not Active

COc1ccc2c3c1O[C@H]1C[C@@H](O)C=C[C@@]31CCN(C)C2 [GALANTAMINE]
IC50 [1]: Not Active
Ki [1]: Not Active
IC50 [2]: Not Active
IC50 [3]: Not Active
IC50 [4]: Not Active
IC50 [5]: Not Active

Nc1ccn([C@@H]2O[C@H](CO)[C@@H](O)C2(F)F)c(=O)n1 [GEMCITABINE]
IC50 [1]: Not Active
Ki [1]: Not Active
IC50 [2]: Not Active
IC50 [3]: Not Active
IC50 [4]: Not Active
IC50 [5]: Not Active

CC(C)=CCC/C(C)=C/CO [GERANIOL]
IC50 [1]: Not Active
Ki [1]: Not Active
IC50 [2]: Not Active
IC50 [3]: Not Active
IC50 [4]: Not Active
IC50 [5]: Not Active

N=C(N)NC(=O)Cc1c(Cl)cccc1Cl [GUANFACINE]
IC50 [1]: Not Active
Ki [1]: Not Active
IC50 ([2]; read-out: IC50): 1350 nM
Ki ([2]; read-out: Ki): 546 nM
IC50 [3]: Not Active
IC50 [4]: Not Active
IC50 [5]: Not Active

Oc1c(Cl)cc(Cl)c(Cl)c1Cc1c(O)c(Cl)cc(Cl)c1Cl [HEXACHLOROPHENE]
IC50 [1]: Not Active
Ki [1]: Not Active
IC50 [2]: Not Active
IC50 [3]: Not Active
IC50 [4]: Not Active
IC50 [5]: Not Active

NNc1nncc2ccccc12 [HYDRALAZINE]
IC50 [1]: Not Active
Ki [1]: Not Active
IC50 [2]: Not Active
IC50 [3]: Not Active
IC50 [4]: Not Active
IC50 [5]: Not Active

CC(=O)[C@@]1(O)CC[C@H]2[C@@H]3CCC4=CC(=O)CC[C@]4(C)[C@H]3CC[C@@]21C [HYDROXYPROGESTERONE]
IC50 [1]: Not Active
Ki [1]: Not Active
IC50 [2]: Not Active
IC50 [3]: Not Active
IC50 [4]: Not Active
IC50 [5]: Not Active

COC1=C(OC)C(=O)C(CCCCCCCCCCO)=C(C)C1=O [IDEBENONE]
IC50 [1]: Not Active
Ki [1]: Not Active
IC50 [2]: Not Active
IC50 [3]: Not Active
IC50 [4]: Not Active
IC50 [5]: Not Active

CC(C)NNC(=O)c1ccncc1 [IPRONIAZID]
IC50 [1]: Not Active
Ki [1]: Not Active
IC50 [2]: Not Active
IC50 [3]: Not Active
IC50 [4]: Not Active
IC50 [5]: Not Active

Cc1c(OCC(F)(F)F)ccnc1C[S+]([O-])c1nc2ccccc2[nH]1 (stereo not given) [LANSOPRAZOLE]
IC50 [1]: Not Active
Ki [1]: Not Active
IC50 [2]: Not Active
IC50 [3]: Not Active
IC50 [4]: Not Active
IC50 [5]: Not Active

O=c1cc(N2CCOCC2)oc2c(-c3ccccc3)cccc12 [LY-294002]
IC50 ([1]; read-out: IC50): 21400 nM
Ki ([1]; read-out: Ki): 17400 nM
IC50 [2]: Not Active
IC50 [3]: Not Active
IC50 [4]: Not Active
IC50 [5]: Not Active

COc1ccc2[nH]cc(CCNC(C)=O)c2c1 [MELATONIN]
IC50 [1]: Not Active
Ki [1]: Not Active
IC50 [2]: Not Active
IC50 [3]: Not Active
IC50 [4]: Not Active
IC50 [5]: Not Active

NC(=O)C[S+]([O-])C(c1ccccc1)c1ccccc1 (stereo not given) [MODAFINIL]
IC50 [1]: Not Active
Ki [1]: Not Active
IC50 [2]: Not Active
IC50 [3]: Not Active
IC50 [4]: Not Active
IC50 [5]: Not Active

CCN(CC)CCOCCC1=CCC2CC1C2(C)C (stereo not given) [MYRTECAINE]
IC50 [1]: Not Active
Ki [1]: Not Active
IC50 [2]: Not Active
IC50 [3]: Not Active
IC50 [4]: Not Active
IC50 [5]: Not Active

O=C(O)c1cccnc1Nc1cccc(C(F)(F)F)c1 [NIFLUMIC ACID]
IC50 [1]: Not Active
Ki [1]: Not Active
IC50 [2]: Not Active
IC50 [3]: Not Active
IC50 [4]: Not Active
IC50 [5]: Not Active

O=C(N/N=C/c1ccc([N+](=O)[O-])o1)c1cc([N+](=O)[O-])cc([N+](=O)[O-])c1O [NIFURSOL]
IC50 [1]: Not Active
Ki [1]: Not Active
IC50 [2]: Not Active
IC50 [3]: Not Active
IC50 [4]: Not Active
IC50 [5]: Not Active

COC(=O)Nc1nc2ccc(C(=O)c3cccs3)cc2[nH]1 [NOCODAZOLE]
IC50 [1]: Not Active
Ki [1]: Not Active
IC50 [2]: Not Active
IC50 [3]: Not Active
IC50 [4]: Not Active
IC50 [5]: Not Active

C#CC1(O)CC[C@H]2[C@@H]3CCC4=CC(=O)CC[C@@H]4[C@H]3CC[C@@]21CC (stereo not given in full) [NORGESTREL]
IC50 ([1]; read-out: IC50): 2360 nM
Ki ([1]; read-out: Ki): 1920 nM
IC50 [2]: Not Active
IC50 [3]: Not Active
IC50 [4]: Not Active
IC50 [5]: Not Active

COC(=O)Nc1nc2ccc([S+]([O-])c3ccccc3)cc2[nH]1 (stereo not given) [OXFENDAZOLE]
IC50 [1]: Not Active
Ki [1]: Not Active
IC50 [2]: Not Active
IC50 [3]: Not Active
IC50 [4]: Not Active
IC50 [5]: Not Active

CC(=O)O[C@H]1C(=O)[C@@]2(C)[C@H]([C@H](OC(=O)c3ccccc3)[C@]3(O)C[C@H](OC(=O)[C@H](O)[C@@H](NC(=O)c4ccccc4)c4ccccc4)C(C)=C1C3(C)C)[C@]1(OC(C)=O)CO[C@@H]1C[C@@H]2O [PACLITAXEL]
IC50 [1]: Not Active
Ki [1]: Not Active
IC50 [2]: Not Active
IC50 [3]: Not Active
IC50 [4]: Not Active
IC50 [5]: Not Active

C[n+]1ccc(-c2cc[n+](C)cc2)cc1.[Cl-].[Cl-] [PARAQUAT DICHLORIDE]
IC50 [1]: Not Active
Ki [1]: Not Active
IC50 [2]: Not Active
IC50 [3]: Not Active
IC50 [4]: Not Active
IC50 [5]: Not Active

CC(C)NCC(O)COc1cccc2[nH]ccc12 (stereo not given) [PINDOLOL]
IC50 [1]: Not Active
Ki [1]: Not Active
IC50 [2]: Not Active
IC50 [3]: Not Active
IC50 [4]: Not Active
IC50 [5]: Not Active

CCn1cc(C(=O)O)c(=O)c2cnc(N3CCCC3)nc21 [PIROMIDIC ACID]
IC50 [1]: Not Active
Ki [1]: Not Active
IC50 [2]: Not Active
IC50 [3]: Not Active
IC50 [4]: Not Active
IC50 [5]: Not Active

C[n+]1ccccc1/C=N/O.[Cl-] [PRALIDOXIME CHLORIDE]
IC50 [1]: Not Active
Ki [1]: Not Active
IC50 [2]: Not Active
IC50 [3]: Not Active
IC50 [4]: Not Active
IC50 [5]: Not Active

C[C@]12C=CC(=O)C=C1CC[C@@H]1[C@@H]2[C@@H](O)C[C@@]2(C)[C@H]1CC[C@]2(O)C(=O)CO [PREDNISOLONE]
IC50 [1]: Not Active
Ki [1]: Not Active
IC50 [2]: Not Active
IC50 [3]: Not Active
IC50 [4]: Not Active
IC50 [5]: Not Active

CC(=O)[C@H]1[C@H](C#N)C[C@H]2[C@@H]3CC=C4C[C@@H](O)CC[C@]4(C)[C@H]3CC[C@@]21C [PREGNENOLONE CARBONITRILE]
IC50 [1]: Not Active
Ki [1]: Not Active
IC50 [2]: Not Active
IC50 [3]: Not Active
IC50 [4]: Not Active
IC50 [5]: Not Active

CCCN(CCC)S(=O)(=O)c1ccc(C(=O)O)cc1 [PROBENECID]
IC50 [1]: Not Active
Ki [1]: Not Active
IC50 [2]: Not Active
IC50 [3]: Not Active
IC50 [4]: Not Active
IC50 [5]: Not Active

Reference: ChEMBL document CHEMBL1909046, “DrugMatrix in vitro pharmacology data”
